Earlier results, collected in patent US20030180704A1, “Ice-controlling molecules and uses thereof” (priority 2002, published 2003).

Test system: Crithidia fasciculata
Details: different media; for ability to cryopreserve Crithidia fasciculata without toxicity: stored at -20 C

| SMILES | ability to cryopreserve Crithidia fasciculata without toxicity | toxicity to Crithidia fasciculata (cryopreservation at -20 C) |
| --- | --- | --- |
| OCCC(O)CO (stereo not shown) [1,2,4-butantriol] | potential outstanding cryoprotectants |  |
| OCC(O)CO [glycerol] | best cryoprotectant |  |
| C[S+](C)[O-] [dimethylsulfoxide] | potential outstanding cryoprotectants |  |
| OC1CCC(O)CC1 (stereo not shown) [1,4-cyclohexanediol] | potential outstanding cryoprotectants |  |
| OC1CCCC(O)C1 (stereo not shown) [1,3-cyclohexanediol] |  | toxic |
| CC(=O)NCCO [N-acetylethanolamine] | potential outstanding cryoprotectants |  |
| CC(O)CO (stereo not shown) [propylene glycol] | potential outstanding cryoprotectants |  |
